The structures appear in SMILES notation.

The target in the test is human-cGAS (h-cGAS) (Homo sapiens, UniProt Q8N884). The experiment in a line: hcGAS Kinase-Glo Assay. Format: biochemical. The note with it: 40 nM h-cGAS, 100 μM ATP, 100 μM GTP, 25 nM dsDNA, 3 h incubation, read-out: hcGAS potency IC50. The gist of the method: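 IC50 values come from a luminescence-based Kinase-Glo measurement on human cGAS. Conditions follow the Lama et al. 2019 method with minor modifications.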
Sequence of human-cGAS (h-cGAS) (Q8N884 whole entry): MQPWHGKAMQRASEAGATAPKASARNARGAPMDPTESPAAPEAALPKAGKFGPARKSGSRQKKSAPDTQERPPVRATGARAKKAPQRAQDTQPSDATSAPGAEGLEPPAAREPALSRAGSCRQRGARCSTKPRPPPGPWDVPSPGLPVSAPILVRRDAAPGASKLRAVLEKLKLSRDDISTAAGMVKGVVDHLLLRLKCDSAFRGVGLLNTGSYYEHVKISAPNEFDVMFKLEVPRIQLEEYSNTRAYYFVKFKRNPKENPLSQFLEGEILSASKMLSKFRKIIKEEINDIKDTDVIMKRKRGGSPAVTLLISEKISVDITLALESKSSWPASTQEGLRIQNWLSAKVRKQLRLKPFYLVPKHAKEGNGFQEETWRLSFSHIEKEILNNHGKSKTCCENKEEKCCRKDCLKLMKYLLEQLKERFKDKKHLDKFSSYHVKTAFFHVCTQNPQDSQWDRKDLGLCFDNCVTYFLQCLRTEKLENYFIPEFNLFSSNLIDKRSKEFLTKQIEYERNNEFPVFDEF
(In general: In Kinase-Glo more light means more ATP remaining.)
For the compound `CSc1nnc(NC(=O)c2cncc(-c3cccs3)c2)s1` [Compound 96, N-(5-(methylthio)-1,3,4-thiadiazol-2-yl)-5-(thiophen-2-yl)-nicotinamide], the IC50 lay in the range of 0.5 to 1 µM. As for `CSc1nnc(NC(=O)c2cc(-c3cccc4cccnc34)cc(=O)o2)s1` [Compound 246, N-(5-methylsulfanyl-1,3,4-thiadiazol-2-yl)-6-oxo-4-(8-quinolyl)pyran-2-carboxamide], the IC50 lay within 0.1 to 0.5 µM. The figure for `CSc1nnc(NC(=O)c2nnc3ccccn23)s1` [Compound 260] is not below 1 µM; for `CN(C)c1nnc(NC(=O)c2onc3c2ccc2cccnc23)s1` [Compound 14, N-(5-(dimethylamino)-1,3,4-thiadiazol-2-yl)isoxazolo[4,3-h]quinoline-3-carboxamide] it is not below 1 µM.

For `CSc1nnc(NC(=O)c2cc(-c3cccc(F)c3)cc(=O)o2)s1` [Compound 238, 4-(3-fluorophenyl)-N-(5-methylsulfanyl-1,3,4-thiadiazol-2-yl)-6-oxo-pyran-2-carboxamide], the IC50 fell in the range of 0.1 to 0.5 µM. In the case of `O=C(Nc1ccccc1Cl)c1nnn2ccc(=O)[nH]c12` [Compound 97, N-(2-chlorophenyl)-5-oxo-4H-[1,2,3]triazolo[1,5-a]pyrimidine-3-carboxamide] it was not below 1 µM. The figure for `CSc1nnc(NC(=O)c2onc3ccc(Cc4ccc(O)c(O)c4)cc23)s1` [Compound 186, 5-(3,4-Dihydroxybenzyl)-N-(5-(methylthio)-1,3,4-thiadiazol-2-yl)benzo[c]isoxazole-3-carboxamide] is 0.5 to 1 µM. As for `CSc1nnc(NC(=O)c2onc3c2CCc2sc(C)nc2-3)s1` [Compound 181, 7-methyl-N-(5-(methylthio)-1,3,4-thiadiazol-2-yl)-4,5-dihydrothiazolo[5′,4′:5,6]benzo[1,2-c]isoxazole-3-carboxamide], the IC50 was in the range of 0.5 to 1 µM.

Regarding `CSc1nnc(NC(=O)c2cc(-c3ccccc3)cc(=O)o2)s1` [Compound 213, N-[5-(methylsulfanyl)-1,3,4-thiadiazol-2-yl]-6-oxo-4-phenylpyran-2-carboxamide], the IC50 lay in the range of 0.1 to 0.5 µM.

As for `CSc1nnc(NC(=O)c2nnc(N3CCC3c3ccccc3)o2)s1` (stereo not drawn) [Compound 74, N-(5-(methylthio)-1,3,4-thiadiazol-2-yl)-5-(2-phenylazetidin-1-yl)-1,3,4-oxadiazole-2-carboxamide], the IC50 is not below 1 µM. For `O=C(Nc1nnc(-c2ccccc2Cl)s1)c1cc(-c2ncccn2)no1` [Compound 154, N-(5-(2-Chlorophenyl)-1,3,4-thiadiazol-2-yl)-3-(pyrimidin-2-yl)isoxazole-5-carboxamide], the IC50 was in the range of 0.1 to 0.5 µM.

For `CSc1nnc(NC(=O)c2cc(-c3ccns3)no2)s1` [Compound 140, N-[5-(methylsulfanyl)-1,3,4-thiadiazol-2-yl]-3-(1,2-thiazol-5-yl)-1,2-oxazole-5-carboxamide], the IC50 is not below 1 µM. With `O=C(Nc1nnc(-c2ccccc2Cl)s1)c1cc(-c2ccccc2)cc(=O)o1` [Compound 205, N-[5-(2-chlorophenyl)-1,3,4-thiadiazol-2-yl]-6-oxo-4-phenylpyran-2-carboxamide], the IC50 was in the range of 0.1 to 0.5 µM. Consider `CSc1nnc(NC(=O)c2onc3c2ccc2ccncc23)s1` [Compound 279, N-(5-(methylthio)-1,3,4-thiadiazol-2-yl)isoxazolo[4,3-h]isoquinoline-3-carboxamide], for which the IC50 lay within 0.5 to 1 µM. As for `CSc1nnc(NC(=O)c2cc(-c3ccc4ccncc4c3)cc(=O)o2)s1` [Compound 264, 4-(isoquinolin-7-yl)-N-(5-(methylthio)-1,3,4-thiadiazol-2-yl)-2-oxo-2H-pyran-6-carboxamide], the IC50 lay within 0.1 to 0.5 µM. Turning to `O=C(Nc1nnc(-c2ccccc2Cl)s1)c1cc(C(F)F)no1` [Compound 35, N-(5-(2-chlorophenyl)-1,3,4-thiadiazol-2-yl)-3-(difluoromethyl)isoxazole-5-carboxamide], the IC50 was in the range of 0.5 to 1 µM. The figure for `CSc1nnc(NC(=O)c2onc3c2ccc2ncccc23)s1` [Compound 271, N-(5-(methylthio)-1,3,4-thiadiazol-2-yl)isoxazolo[3,4-f]quinoline-3-carboxamide] is 0.5 to 1 µM. In the case of `COc1cccc(-c2cc(C(=O)Nc3nnc(SC)s3)oc(=O)c2)c1` [Compound 241, 4-(3-methoxyphenyl)-N-(5-methylsulfanyl-1,3,4-thiadiazol-2-yl)-6-oxo-pyran-2-carboxamide] it was 0.1 to 0.5 µM. In the case of `COCCc1cc(C(=O)Nc2nnc(-c3ccccc3Cl)s2)on1` [Compound 169, N-(5-(2-chlorophenyl)-1,3,4-thiadiazol-2-yl)-3-(2-methoxyethyl)isoxazole-5-carboxamide] it was less than 0.1 µM; in that of `Nc1cc(C(=O)Nc2nnc(-c3ccccc3Cl)s2)on1` [Compound 4, 3-amino-N-(5-(2-chlorophenyl)-1,3,4-thiadiazol-2-yl)isoxazole-5-carboxamide], less than 0.1 µM; in that of `CSc1nnc(NC(=O)c2nnn(Cc3ccccn3)n2)s1` [Compound 133, N-[5-(methylthio)-1,3,4-thiadiazol-2-yl]-2-(pyridin-2-ylmethyl)-1,2,3,4-tetrazole-5-carboxamide], not below 1 µM. In the case of `CSc1nnc(NC(=O)c2cc(-c3c(F)cccc3F)no2)s1` [Compound 46, 3-(2,6-difluorophenyl)-N-(5-(methylthio)-1,3,4-thiadiazol-2-yl)isoxazole-5-carboxamide], the IC50 fell in the range of 0.1 to 0.5 µM. In the case of `CC(C)(C)OC(=O)Nc1cc(C(=O)Nc2nnc(-c3ccccc3Cl)s2)on1` [Compound 3, tert-butyl (5-((5-(2-chlorophenyl)-1,3,4-thiadiazol-2-yl)carbamoyl)isoxazol-3-yl)carbamate] it was 0.1 to 0.5 µM; in that of `COc1ccc2noc(C(=O)Nc3nnc(SC)s3)c2c1` [Compound 224, 5-methoxy-N-[5-(methylsulfanyl)-1,3,4-thiadiazol-2-yl]-2,1-benzoxazole-3-carboxamide], not below 1 µM. In the case of `CSc1nnc(NC(=O)c2cc(-c3ccc4cccnc4c3)cc(=O)o2)s1` [Compound 270, N-(5-(methylthio)-1,3,4-thiadiazol-2-yl)-2-oxo-4-(quinolin-7-yl)-2H-pyran-6-carboxamide] it was 0.1 to 0.5 µM; in that of `CSc1nsc(NC(=O)c2onc3c2ccc2cccnc23)n1` [Compound 11, N-(3-(methylthio)-1,2,4-thiadiazol-5-yl)isoxazolo[4,3-h]quinoline-3-carboxamide], 0.1 to 0.5 µM. Consider `CSc1nnc(NC(=O)c2cc(-c3ccccc3C)cc(=O)o2)s1` [Compound 248], for which the IC50 was 0.1 to 0.5 µM. The figure for `O=C(Nc1nnc(-c2ccccc2Cl)s1)c1nc[nH]n1` [Compound 58, N-(5-(2-chlorophenyl)-1,3,4-thiadiazol-2-yl)-1H-1,2,4-triazole-3-carboxamide] is 0.5 to 1 µM.

In the case of `CSc1nnc(NC(=O)c2cc(-c3ccc(Cl)cc3)no2)s1` [Compound 50, 3-(4-chlorophenyl)-N-(5-(methylthio)-1,3,4-thiadiazol-2-yl)isoxazole-5-carboxamide], the IC50 fell in the range of 0.5 to 1 µM. In the case of `CSc1nnc(NC(=O)c2nnn(-c3ccccc3)n2)s1` [Compound 66, N-(5-(methylthio)-1,3,4-thiadiazol-2-yl)-2-phenyl-2H-tetrazole-5-carboxamide] it was 0.5 to 1 µM.

Broadly, the IC50 is the midpoint of a concentration-inhibition curve.

The values are drawn from US20250002487A1, “HETEROCYCLIC COMPOUNDS AND USES THEREOF” (Ventus Therapeutics U.S., Inc., priority 2021, published 2025).
